The structures appear in SMILES notation. Where two headings read alike, the source gives them in different places.

What all share (type): cell-based
A short description of data set [1]: Compound cytotoxicity in the absence of virus (CellTiter-Glo). Particulars: human; non-infected HOS cultures, cell viability; read-out: Cytotox (pIC50) (converted). On the procedure: (§1) Compounds were profiled against two HIV-1 viruses, the M-tropic (CCR5 utilizing) Ba-L strain and the T-tropic (CXCR4 utilizing) IIIB strain. Both viruses were propagated in human peripheral blood lymphocytes. Compounds were tested for there ability to block infection of the HOS cell line (expressing hCXCR4/hCCR5/hCD4/pHIV-LTR-luciferase) by either HIV-1 Ba-L or HIV-1 IIIB. Compound cytotoxicity was also examined in the absence of virus addition.
(§2) HOS cells (expressing hCXCR4/hCCR5/hCD4/pHIV-LTR-luciferase) were harvested and diluted in Dulbeccos modified Eagles media supplemented with 2% FCS and non-essential amino acid to a concentration of 60,000 cells/ml. The cells were plated into 96-well plates (100 ul per well) and the plates were placed in a tissue culture incubator (37° C.; 5% CO2/95% air) for a period of 24 h.
(§3) Subsequently, 50 ul of the desired drug solution (4 times the final concentration) was added to each well and the plates were returned to the tissue culture incubator (37° C.; 5% CO2/95% air) for 1 h. Following this incubation 50 ul of diluted virus was added to each well (approximately 2 million RLU per well of virus). The plates were returned to the tissue culture incubator (37° C.; 5% CO2/95% air) and were incubated for a further 96 h.
(§4) Following this incubation the endpoint for the virally infected cultures was quantified following addition of Steady-Glo Luciferase assay system reagent (Promega, Madison, Wis.). Cell viability or non-infected cultures was measured using a CellTiter-Glo luminescent cell viability assay system (Promega, Madison, Wis.). All luminescent readouts are performed on a Topcount luminescence detector (Packard, Meridien, Conn.).
In general terms: ATP-based viability assays read luminescence as a measure of living cells.

Data set [2] concerns HIV-1 IIIB strain, T-tropic (CXCR4 utilizing). The data set can be described thus: HOS HIV-1 infectivity assay. On the procedure: as §1, §2, §3, §4
In data set [3] the test system is HIV-1 gp160 (HXB2 strain) mediated fusion with HOS (hCXCR4/hCCR5/hCD4/pHIV-LTR-luciferase) cells. Briefly: Cell/cell fusion assay (HEK-293 expressing HIV-1 tat, rev, gp160 with HOS hCXCR4/hCCR5/hCD4/pHIV-LTR-luciferase cells). Particulars: Homo sapiens, HEK293; luciferase readout after 24 h; read-out: Fusion assay (pIC50) (converted). The text has this: The complete coding sequences of HIV-1 tat (GenBank Accession No. X07861) and rev (GenBank Accession No. M34378) were cloned into pcDNA3.1 expression vectors containing G418 and hygromycin resistance genes, respectively. The complete coding sequence of the HIV-1 (HXB2 strain) gp160 envelope gene (nucleotide bases 6225-8795 of GenBank Accession No. K03455) was cloned into plasmid pCRII-TOPO. The three HIV genes were additionally inserted into the baculovirus shuttle vector, pFastBacMam1, under the transcriptional control of the CMV promoter. A construction of the pHIV-I LTR containing mutated NFkB sequences linked to the luciferase reporter gene was prepared by digesting pcDNA3.1, containing the G418 resistance gene, with Nru I and Bam HI to remove the CMV promoter. LTR-luc was then cloned into the Nru I/Bam HI sites of the plasmid vector. Plasmid preparations were performed after the plasmids were amplified in Escherichia coli strain DH5-alpha. The fidelity of the inserted sequences was confirmed by double-strand nucleotide sequencing using an ABI Prism Model 377 automated sequencer.
Recombinant BacMam baculoviruses were constructed from pFastBacMam shuttle plasmids by using the bacterial cell-based Bac-to-Bac system. Viruses were propagated in Sf9 (Spodoptera frugiperda) cells cultured in Hink's TNM-FH Insect media supplemented with 10% (v/v) fetal bovine serum and 0.1% (v/v) pluronic F-68 according to established protocols.
Human osteosarcoma (HOS) cells that naturally express human CXCR4 were transfected with human CCR5, human CD4 and the pHIV-LTR-luciferase plasmid using FuGENE 6 transfection reagent. Single cells were isolated and grown under selection condition in order to generate a stable HOS (hCXCR4/hCCR5/hCD4/pHIV-LTR-luciferase) clonal cell line. The cells were maintained in Dulbeccos modified Eagles media supplemented with 10% fetal calf serum (FCS), G418 (400 ug/ml), puromycin (1 ug/ml), mycophenolic acid (40 ug/ml), xanthine (250 ug/ml) and hypoxanthine (13.5 ug/ml) to maintain a selection pressure for cells expressing the LTR-luciferase, hCCR5 and hCD4, respectively. Human embryonic kidney (HEK-293) cells stably transfected to express the human macrophage scavenging receptor (Class A, type 1; GenBank Accession No. D90187), were maintained in DMEM/F-12 media (1:1) supplemented with 10% FCS and 1.5 ug/ml puromycin. The expression of this receptor by the HEK-293 cells enhances their ability to stick to tissue culture treated plasticware.
HEK-293 cells were harvested using enzyme-free cell dissociation buffer. The cells were resuspended in DMEM/F-12 media supplemented with 10% FCS and 1.5 ug/ml and counted. Tranductions were performed by direct addition of BacMam baculovirus containing insect cell media to cells. The cells were simultaneously transduced with BacMam baculovirus expressing HIV-1 tat, HIV-1 rev and HIV-1 gp160 (from the HXB2 HIV strain). Routinely an MOI of 10 of each virus was added to the media containing the cells. 2 mM butyric acid was also added to the cells at this stage to increase protein expression in transduced cells. The cells were subsequently mixed and seeded into a flask at 30 million cells per T225. The cells were incubated at 37° C., 5% CO2, 95% humidity for 24 h to allow for protein expression.
HEK and HOS cells were harvested in DMEM/F-12 media containing 2% FCS and DMEM media containing 2% FCS, respectively, with no selection agents added. Compounds were plated as 1 ul spots in 100% DMSO on a 96-well CulturPlate plates. HOS cells (50 ul) were added first to the wells, followed immediately by the HEK cells (50 ul). The final concentration of each cell type was 20,000 cells per well. Following these additions, the cells were returned to a tissue culture incubator (37° C.; 5% CO2/95% air) for an additional 24 h.
Following the 24 h incubation, total cellular luciferase activity was measured using the LucLite Plus assay kit (Packard, Meridien, Conn.). […]

A further data set has as its target T1, CXCR4 receptor (Homo sapiens, UniProt P61073).
T1 construct: expressed in transfected cells; host or cells: HEK-293 cells (stably expressing human macrophage scavenging receptor) transduced with human CXCR4 BacMam and Gqi5 BacMam
Briefly: Functional FLIPR assay (block of SDF-1 alpha induced [Ca2+]i change). Particulars: HEK-293 cells with human CXCR4 BacMam and Gqi5 BacMam; antagonism of SDF-1 alpha; read-out: Functional assay (pIC50) (converted). On the procedure: Human embryonic kidney (HEK-293) cells were maintained and harvested as described above. Cells were plated in 96-well, black clear bottom, poly-lysine coated plates at a concentration of 40,000 cells per well in a final volume of 100 ul containing human CXCR4 BacMam (MOI=25) and Gqi5 BacMam (MOI=12.5). The cells were incubated at 37° C., 5% CO2, 95% humidity for 24 h to allow for protein expression.
After the required incubation time the cells were washed once with 50 ul of fresh serum-free DMEM/F12 media containing probenicid. 50 ul of dye solution was then added to the cells (Calcium Plus Assay Kit Dye; Molecular Devices) was dissolved in 200 ml of the above probenicid/BSA containing media and incubated for 1 h. Cell plates were transferred to a Fluorometric Imaging Plate Reader (FLIPR). Upon addition the effect of the compounds on the change in [Ca^2+]i was examined to determine if the compounds were agonists or antagonists (ability to block SDF-1 alpha activity) at the CXCR4 receptor. IC50 values are determined and pKb values are calculated using the Leff and Dougall equation: KB=IC50/((2+([agonist]/EC50̂b)̂1/b -1) Where IC50 is that defined by the antagonist concentration-response curve [agonist] is the EC80 concentration of agonist used EC50 is that defined by the agonist concentration-response curve b is the slope of the agonist concentration-response curve.

[4] abbreviates: Human immunodeficiency virus 1, IIIB, HOS HIV anti-infectivity assay, strain not named in Table 2, read-out: Activity Level.
Setting [5] is: Human immunodeficiency virus 1, HOS cells, HIV-1 IIIB, 96 h, luciferase, read-out: HOS (3B).

T1 sequence (P61073 whole entry): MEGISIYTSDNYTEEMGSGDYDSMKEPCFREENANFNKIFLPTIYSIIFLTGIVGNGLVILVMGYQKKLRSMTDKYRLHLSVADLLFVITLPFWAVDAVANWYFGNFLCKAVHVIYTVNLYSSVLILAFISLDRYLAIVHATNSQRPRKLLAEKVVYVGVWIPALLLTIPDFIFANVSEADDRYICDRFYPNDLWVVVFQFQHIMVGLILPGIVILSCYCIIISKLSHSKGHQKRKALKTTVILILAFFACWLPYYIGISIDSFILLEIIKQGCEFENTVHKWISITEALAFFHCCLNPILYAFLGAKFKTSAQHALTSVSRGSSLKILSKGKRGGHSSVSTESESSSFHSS

For the compound `NCCCCN(Cc1cn2cc(F)ccc2n1)C1CCCc2cccnc21` (centres unmarked) [Example 11, N-[(6-Fluoroimidazo[1,2-a]pyridin-2-yl)methyl]-N-(5,6,7,8-tetrahydro-8-quinolinyl)-1,4-butanediamine], the IC50 at 96 h in data set [1] is more than 100000 nM. The IC50 is less than 0.1 µM in data set [2] (setting [4]), 0.033 µM in data set [2] (setting [5]), 63.1 nM in data set [3] and 17 nM on CXCR4 receptor.
Turning to `NCCCCN(Cc1cn2c(Br)cccc2n1)C1CCCc2cccnc21` (centres unmarked) [Example 12, N-[(5-Bromoimidazo[1,2-a]pyridin-2-yl)methyl]-N-(5,6,7,8-tetrahydro-8-quinolinyl)-1,4-butanediamine], in data set [1], the IC50 at 96 h is more than 100000 nM. Further, the IC50 in data set [2] (setting [4]) was less than 0.1 µM; in data set [2] (setting [5]), 0.01 µM; in data set [3] it was 28.8 nM; at CXCR4 receptor it was 9.77 nM.
In the case of `NCCCCN(Cc1cn2c(Cl)cccc2n1)C1CCCc2cccnc21` (centres unmarked) [Example 13, N-[(5-Chloroimidazo[1,2-a]pyridin-2-yl)methyl]-N-(5,6,7,8-tetrahydro-8-quinolinyl)-1,4-butanediamine], the IC50 at 96 h in data set [1] was more than 100000 nM. Moreover, the IC50 was less than 0.1 µM in data set [2] (setting [4]), 0.025 µM in data set [2] (setting [5]), 91.2 nM in data set [3] and 40.7 nM at CXCR4 receptor.
Taken in the same sequence, the figures for `NCCCCN(Cc1cn2c(F)cccc2n1)C1CCCc2cccnc21` (centres unmarked) [Example 14, N-[(5-Fluoroimidazo[1,2-a]pyridin-2-yl)methyl]-N-(5,6,7,8-tetrahydro-8-quinolinyl)-1,4-butanediamine] were more than 100000 nM, less than 0.1 µM, 0.091 µM, 407 nM and 100 nM.
In the case of `Cc1cc(C)n2cc(CN(CCCCN)C3CCCc4cccnc43)nc2c1` (centres unmarked) [Example 15, N-[(5,7-Dimethylimidazo[1,2-a]pyridin-2-yl)methyl]-N-(5,6,7,8-tetrahydro-8-quinolinyl)-1,4-butanediamine], the IC50 at 96 h in data set [1] is more than 100000 nM. Also, the IC50 was 0.1 to 0.5 µM in data set [2] (setting [4]), 0.112 µM in data set [2] (setting [5]), 316 nM in data set [3] and 93.3 nM at CXCR4 receptor.
With `NCCCCN(Cc1cn2cc(Cl)cc(Cl)c2n1)C1CCCc2cccnc21` (centres unmarked) [Example 16, N-[(6,8-Dichloroimidazo[1,2-a]pyridin-2-yl)methyl]-N-(5,6,7,8-tetrahydro-8-quinolinyl)-1,4-butanediamine], the IC50 at 96 h in data set [1] was more than 100000 nM. In addition, the IC50 in data set [2] (setting [4]) is 0.1 to 0.5 µM; in data set [2] (setting [5]) it was 0.133 µM; in data set [3], 1290 nM; on CXCR4 receptor, 49 nM.
As for `NCCCCN(Cc1cn2cc(C(F)(F)F)cc(Cl)c2n1)C1CCCc2cccnc21` (centres unmarked) [Example 17, N-{[8-Chloro-6-(trifluoromethyl)imidazo[1,2-a]pyridin-2-yl]methyl}-N-(5,6,7,8-tetrahydro-8-quinolinyl)-1,4-butanediamine], the IC50 at 96 h in data set [1] is more than 100000 nM. Besides, the IC50 was 0.3 µM in data set [2] (Human immunodeficiency virus 1, IIIB, HOS, 96 h, read-out: HOS (3B) (μM)); 0.1 to 0.5 µM in data set [2] (Human immunodeficiency virus 1, IIIB, read-out: Activity Level); 3890 nM in data set [3]; 347 nM at CXCR4 receptor.
Take `Cc1c(Br)ccc2nc(CN(CCCCN)C3CCCc4cccnc43)cn12` (centres unmarked) [Example 18, N-[(6-Bromo-5-methylimidazo[1,2-a]pyridin-2-yl)methyl]-N-(5,6,7,8-tetrahydro-8-quinolinyl)-1,4-butanediamine]: the IC50 at 96 h in data set [1] is more than 100000 nM. The IC50 in data set [2] (setting [4]) was less than 0.1 µM; in data set [2] (setting [5]) it was 0.088 µM; in data set [3], 155 nM; at CXCR4 receptor, 30.9 nM.
With `Cc1cc(Br)cn2cc(CN(CCCCN)C3CCCc4cccnc43)nc12` (centres unmarked) [Example 19, N-[(6-Bromo-8-methylimidazo[1,2-a]pyridin-2-yl)methyl]-N-(5,6,7,8-tetrahydro-8-quinolinyl)-1,4-butanediamine], in data set [1], the IC50 at 96 h is more than 100000 nM. The IC50 is 0.1 to 0.5 µM in data set [2] (setting [4]), 0.14 µM in data set [2] (setting [5]), 537 nM in data set [3] and 67.6 nM at CXCR4 receptor.
On to `Cc1cc(Br)c2nc(CN(CCCCN)C3CCCc4cccnc43)cn2c1` (centres unmarked) [Example 20, N-[(8-Bromo-6-methylimidazo[1,2-a]pyridin-2-yl)methyl]-N-(5,6,7,8-tetrahydro-8-quinolinyl)-1,4-butanediamine], for which the IC50 at 96 h in data set [1] was more than 100000 nM. The IC50 in data set [2] (setting [4]) is 0.1 to 0.5 µM; in data set [2] (setting [5]) it was 0.31 µM; in data set [3], 2290 nM; at CXCR4 receptor, 135 nM.

Source of the values: US20080171740A1, “Chemical Compounds” (SMITHKLINE BEECHAM CORPORATION, priority 2004, published 2008).
